This note sets out measurements from patent US10835533B2, “1 -((3S,4R)-4-(3-fluorophenyl)-1-(2-methoxyethyl)pyrrolidin-3-yl)-3-(4-methyl-3-(2-methylpyrimidin-5-yl)-1-phenyl-1H-pyrazol-5-yl)urea as a TrkA kinase inhibitor” (Array BioPharma Inc., priority 2014, dated 2020).

Structures are written as SMILES.

The series can be described thus: Male Sprague Dawley rat pharmacokinetics, oral 10 mg/kg (Example D). The following applies: for Plasma:Brain ratio: Rat PO 10 mg/kg, plasma and brain collected 2 hours post dose; for Trough concentration / AUC / Cmax: Rat, oral dose 10 mg/kg, plasma; for AUC / Cmax: male, Sprague Dawley. It is filed as in vivo. The protocol: Each of Compound 1, Compound 2, and Compound 3 was formulated by adding the compound (dry) to 20% Trappsol® (hydroxypropyl Beta cyclodextrin; CDT, Inc.) (aq) pH 5.0 and vortexing until a homogeneous suspension (PO) or solution (IV) was achieved.
For oral dosing, rats received a single oral dose following an overnight fast. Blood was drawn from the lateral tail vein while the animal was anesthetized with 3% isoflurane balanced with O2 (0.2 mL/timepoint) into NaEDTA tubes (1.5% v/v) at the following time points: 5, 15, and 30 minutes, and 1, 2, 4, 8, 24 and 26 hours, and mixed thoroughly. Following the 24 hour blood collection, animals were redosed orally, and plasma and brain were collected 2 hours post dose for compound analysis. Brains were perefused with saline before removal, weighed and flash frozen in liquid nitrogen until analysis by LCMS/MS. Plasma was separated by centrifugation at 14,000 rpm for 10 minutes and the plasma samples were transferred to 96 well plate tubes with rubber caps and stored at −20±5° C. until analyzed.
A single 12-point calibration curve was prepared by first serially diluting (3-fold) a 40-μg/mL stock solution of Compound 1, Compound 2, and Compound 3 in DMSO to provide standard solutions. Plasma (20 μL) was then added to the extraction plate, and 2.5 μL of each standard solution was added to the naïve plasma. A stock solution of an internal standard (10.0 μL of 2.5 μg/mL in acetonitrile) subsequently was added to each standard and sample solution. Proteinaceous material was precipitated from 20 μL of plasma with the addition of 317.5 μL of acetonitrile for a total volume of 350 μL. Samples were vortex-mixed for 5 minutes and spun in an Allegra X-12R centrifuge (Beckman Coulter, Fullerton, Calif.) for 15 minutes at approximately 1,500×g at 4° C. A 100-μL aliquot of each supernatant was transferred via a 550 μL Personal Pipettor (Apricot Designs, Monrovia, Calif.) to 96-well plates and diluted 1:1 with HPLC grade water. The resulting plates were sealed with plate mats and the amount of Compound 1n the plasma was analyzed by LC-MS/MS.
The LC-MS/MS system was comprised of an HTC-PAL autosampler (Leap Technologies, Inc., Carrboro, N.C.), an HP1100 HPLC (Agilent Technologies Inc., Santa Clara, Calif.), and an API4000 triple quadrupole mass spectrometer (Applied Biosystems, Foster City, Calif.). Chromatographic retention of the analyte and internal standard was achieved using a Phenomenex® Synergi 4μ Hydro-RP 80A column (2.1×30 mm, 4 μm particle size; Phenomenex, Torrance, Calif.) in conjunction with gradient conditions using mobile phases A (10 mM ammonium acetate in aqueous 0.1% formic acid and 1% isopropyl alcohol) and B (10 mM ammonium acetate in 89.9% acetonitrile, 10% methanol, 0.1% formic acid). The total run time, including re-equilibration time, for a single injection was 3.5 minutes and the flow rate was 0.8 mL/minute. Solvent B was increased from 5 to 95% in 1.0 minute, held at 95% for 1.0 minute, and then decreased to 5% in 0.1 minute.
A single 12-point calibration curve was prepared by first serially diluting (3-fold) a 40-μg/mL stock solution of each of Compound 1, Compound 2, and Compound 3 in DMSO. Brain homogenate was prepared by adding 5.0 mL of water to conical 50 mL tubes containing brains. The contents of the tubes were homogenized using an Omni-Prep Multi Sample Homogenizer (Kennesaw, Ga.) at 22,000 RPM for 180 seconds. The homogenate (100 μL) was added to the extraction plate, and 2.5 μL each standard solution was added to the naïve brain homogenate. A stock solution of an internal standard (10.0 μL of 2.5 μg/mL in acetonitrile) subsequently was added to each standard and sample solution. Proteinaceous material was precipitated from 100 μL of […] with the addition of 237.5 μL of acetonitrile for a total volume of 350 μL. […]

`COCCN1C[C@@H](NC(=O)Nc2c(C)c(-c3cnc(C)nc3)nn2-c2ccccc2)[C@H](c2cccc(F)c2)C1` [Compound 1, 1-((3S,4R)-4-(3-fluorophenyl)-1-(2-methoxyethyl)pyrrolidin-3-yl)-3-(4-methyl-3-(2-methylpyrimidin-5-yl)-1-phenyl-1H-pyrazol-5-yl)urea]: the “Plasma:Brain ratio” value is reported as 21; the Trough concentration is 0.00134 µg/mL; the AUC – broadly, concentration integrated over time – worked out at 2570 ng·h/mL; the Cmax (usually the peak of the concentration-time curve) stood at 1060 ng/mL.
Taken in the same sequence, the figures for `COCCN1C[C@@H](NC(=O)Nc2c(C)c(-c3cnc(C)nc3)nn2-c2ccccc2)[C@H](c2ccc(F)c(F)c2)C1` [Compound 2, 1-((3S,4R)-4-(3,4-difluorophenyl)-1-(2-methoxyethyl)pyrrolidin-3-yl)-3-(4-methyl-3-(2-methylpyrimidin-5-yl)-1-phenyl-1H-pyrazol-5-yl)urea] were 11, 0.000446 µg/mL, 925 ng·h/mL and 420 ng/mL.
With `COCCN1C[C@@H](NC(=O)Nc2c(C)c(-c3cnn(C)c3)nn2-c2ccccc2)[C@H](c2ccc(F)cc2)C1` [Compound 3, 1-(1′,4-dimethyl-1-phenyl-1H,1′H-[3,4′-bipyrazol]-5-yl)-3-((3S,4R)-4-(4-fluorophenyl)-1-(2-methoxyethyl)pyrrolidin-3-yl)urea], the Trough concentration was 0.00044 µg/mL, the area under the curve (AUC) was found to be 1060 ng·h/mL and the Cmax was 498 ng/mL.
